Measurements taken from PMC6100543, “Parthenolide Inhibits STAT3 Signaling by Covalently Targeting Janus Kinases” (Molecules : A Journal of Synthetic Chemistry and Natural …, 2018).

Target: T1, JAK2 (Mus musculus, UniProt Q62120)
T1 construct: JAK2-FLAG, overexpressed in HEK293 and immunoprecipitated
Assay: in vitro kinase assay with immunoprecipitated JAK2-FLAG; LC-MS/MS of PN-modified tryptic peptides
Type: biochemical

T1 sequence (Q62120 whole entry): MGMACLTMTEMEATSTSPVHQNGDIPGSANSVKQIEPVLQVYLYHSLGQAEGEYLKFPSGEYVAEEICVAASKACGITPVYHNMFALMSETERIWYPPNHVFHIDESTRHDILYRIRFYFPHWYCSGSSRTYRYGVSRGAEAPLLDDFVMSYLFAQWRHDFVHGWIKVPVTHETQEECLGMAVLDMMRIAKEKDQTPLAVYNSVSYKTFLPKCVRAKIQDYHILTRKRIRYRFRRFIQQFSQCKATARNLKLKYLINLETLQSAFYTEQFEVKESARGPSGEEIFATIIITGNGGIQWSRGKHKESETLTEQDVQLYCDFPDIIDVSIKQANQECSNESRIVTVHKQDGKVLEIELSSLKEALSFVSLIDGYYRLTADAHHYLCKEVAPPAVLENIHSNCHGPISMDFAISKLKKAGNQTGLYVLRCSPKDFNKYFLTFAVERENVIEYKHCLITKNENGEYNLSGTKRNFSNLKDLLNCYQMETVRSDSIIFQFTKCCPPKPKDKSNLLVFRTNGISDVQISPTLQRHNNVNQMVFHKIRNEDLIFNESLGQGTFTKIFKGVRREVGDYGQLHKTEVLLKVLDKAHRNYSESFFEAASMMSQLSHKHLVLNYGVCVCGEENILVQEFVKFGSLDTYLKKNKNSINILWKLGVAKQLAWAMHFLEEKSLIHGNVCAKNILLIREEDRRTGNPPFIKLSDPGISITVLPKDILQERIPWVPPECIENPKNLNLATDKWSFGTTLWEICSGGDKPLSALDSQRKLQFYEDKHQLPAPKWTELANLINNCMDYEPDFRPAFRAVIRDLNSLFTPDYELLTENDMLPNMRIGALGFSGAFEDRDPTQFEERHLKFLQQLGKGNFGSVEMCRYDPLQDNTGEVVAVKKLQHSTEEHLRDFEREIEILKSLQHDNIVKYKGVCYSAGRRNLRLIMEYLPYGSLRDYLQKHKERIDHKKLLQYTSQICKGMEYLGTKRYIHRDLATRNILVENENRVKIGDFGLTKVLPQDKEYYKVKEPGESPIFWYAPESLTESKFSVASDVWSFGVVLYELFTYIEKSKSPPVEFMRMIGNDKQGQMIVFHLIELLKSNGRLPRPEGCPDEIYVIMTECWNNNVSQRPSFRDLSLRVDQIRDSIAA

SMILES: C=C1C(=O)O[C@H]2[C@H]1CC/C(C)=C/CC[C@@]1(C)O[C@@H]21 [PN, parthenolide]
- IC50: 3.94 µM
